For six molecules, mutagenic call results are on record in PubChem BioAssay AID1259407 (Chemical Carcinogenesis Research Information System (CCRIS), 2018).

Active and inactive are the calls of the source. How the calls were made is not given here.

This data set has as its system CCRIS mutagenicity, Ames/micronucleus/aberration tests. As to the kind of experiment: CCRIS mutagenicity studies. Conditions: Test System: AMES SALMONELLA TYPHIMURIUM
[1] abbreviates: Strain/Indicator: TA98, Metabolic Activation: NONE, Method: PREINCUBATION
Setting [2] is: Strain/Indicator: TA100, Metabolic Activation: NONE, Method: PREINCUBATION
[3] abbreviates: Strain/Indicator: TA98, Metabolic Activation: RAT, LIVER, S-9, AROCLOR 1254, Method: STANDARD PLATE.
The mark [4] stands for this setting: Strain/Indicator: TA100, Metabolic Activation: NONE, Method: STANDARD PLATE.
The mark [5] stands for this setting: Strain/Indicator: TA100, Metabolic Activation: RAT, LIVER, S-9, AROCLOR 1254, Method: STANDARD PLATE.

For the molecule `CCN(C(=O)N(CC)c1ccccc1)c1ccccc1`, the mutagenic call reads like this: (Strain/Indicator: TA97, Metabolic Activation: HAMSTER, LIVER, S-9, AROCLOR 1254 (10%), Method: PREINCUBATION) “inactive; negative”; (Strain/Indicator: TA97, Metabolic Activation: HAMSTER, LIVER, S-9, AROCLOR 1254 (30%), Method: PREINCUBATION) “inactive; negative”; (Strain/Indicator: TA97, Metabolic Activation: NONE, Method: PREINCUBATION) “inactive; negative”; (Strain/Indicator: TA97, Metabolic Activation: RAT, LIVER, S-9, AROCLOR 1254 (10%), Method: PREINCUBATION) “inactive; negative”; (Strain/Indicator: TA97, Metabolic Activation: RAT, LIVER, S-9, AROCLOR 1254 (30%), Method: PREINCUBATION) “inactive; negative”; (Strain/Indicator: TA98, Metabolic Activation: HAMSTER, LIVER, S-9, AROCLOR 1254 (10%), Method: PREINCUBATION) “inactive; negative”. For the same molecule, the mutagenic call is, setting by setting: (Strain/Indicator: TA98, Metabolic Activation: HAMSTER, LIVER, S-9, AROCLOR 1254 (30%), Method: PREINCUBATION) “inactive; negative”; under setting [1], “inactive; negative”; (Strain/Indicator: TA98, Metabolic Activation: RAT, LIVER, S-9, AROCLOR 1254 (10%), Method: PREINCUBATION) “inactive; negative”; (Strain/Indicator: TA98, Metabolic Activation: RAT, LIVER, S-9, AROCLOR 1254 (30%), Method: PREINCUBATION) “inactive; negative”; (Strain/Indicator: TA100, Metabolic Activation: HAMSTER, LIVER, S-9, AROCLOR 1254 (10%), Method: PREINCUBATION) “inactive; negative”; (Strain/Indicator: TA100, Metabolic Activation: HAMSTER, LIVER, S-9, AROCLOR 1254 (30%), Method: PREINCUBATION) “inactive; negative”. Moreover, the mutagenic call by setting is: under setting [2], “inactive; negative”; (Strain/Indicator: TA100, Metabolic Activation: RAT, LIVER, S-9, AROCLOR 1254 (10%), Method: PREINCUBATION) “inactive; negative”; (Strain/Indicator: TA100, Metabolic Activation: RAT, LIVER, S-9, AROCLOR 1254 (30%), Method: PREINCUBATION) “inactive; negative”; (Strain/Indicator: TA1535, Metabolic Activation: HAMSTER, LIVER, S-9, AROCLOR 1254 (10%), Method: PREINCUBATION) “inactive; negative”; (Strain/Indicator: TA1535, Metabolic Activation: HAMSTER, LIVER, S-9, AROCLOR 1254 (30%), Method: PREINCUBATION) “inactive; negative”; (Strain/Indicator: TA1535, Metabolic Activation: NONE, Method: PREINCUBATION) “inactive; negative”. Further, the mutagenic call (Strain/Indicator: TA1535, Metabolic Activation: RAT, LIVER, S-9, AROCLOR 1254 (10%), Method: PREINCUBATION) is “inactive; negative” and the mutagenic call (Strain/Indicator: TA1535, Metabolic Activation: RAT, LIVER, S-9, AROCLOR 1254 (30%), Method: PREINCUBATION) was “inactive; negative”.

For `CCOCC(=O)O`, the mutagenic call is, setting by setting: (Strain/Indicator: TA97A, Metabolic Activation: NONE, Method: STANDARD PLATE) “inactive; negative”; (Strain/Indicator: TA97A, Metabolic Activation: RAT, LIVER, S-9, AROCLOR 1254, Method: STANDARD PLATE) “inactive; negative”; (Strain/Indicator: TA98, Metabolic Activation: NONE, Method: STANDARD PLATE) “inactive; negative”; under setting [3], “inactive; negative”; under setting [4], “inactive; negative”; under setting [5], “inactive; negative”. In addition, the mutagenic call reads like this: (Strain/Indicator: TA102, Metabolic Activation: NONE, Method: STANDARD PLATE) “inactive; negative”; (Strain/Indicator: TA102, Metabolic Activation: RAT, LIVER, S-9, AROCLOR 1254, Method: STANDARD PLATE) “inactive; negative”.

Turning to `c1ccc2c(c1)ccc1nc3ccc4c(c3cc12)CCCC4`, the mutagenic call (Strain/Indicator: TA98, Metabolic Activation: GUINEA PIG, LIVER, S-9, 3-METHYLCHOLANTHRENE, Method: STANDARD PLATE) was “inactive; negative” and the mutagenic call (Strain/Indicator: TA100, Metabolic Activation: GUINEA PIG, LIVER, S-9, 3-METHYLCHOLANTHRENE, Method: STANDARD PLATE) was “active; positive”.

With `[Cl][Sb]([Cl])[Cl]`, the mutagenic call under setting [1] was “inactive; negative”; the mutagenic call (Strain/Indicator: TA98, Metabolic Activation: RAT, LIVER, S-9 (10%), Method: PREINCUBATION) is “inactive; negative”; the mutagenic call under setting [2] was “inactive; negative”; the mutagenic call (Strain/Indicator: TA100, Metabolic Activation: RAT, LIVER, S-9 (10%), Method: PREINCUBATION) is “inactive; negative”.

Turning to `C=C(C#N)C(=O)OCC`, the mutagenic call by setting is: under setting [4], “inactive; negative”; under setting [5], “inactive; negative”.

As to `CNC(=O)Oc1ccccc1`, the mutagenic call reads like this: under setting [3], “inactive; negative”; (Strain/Indicator: TA1535, Metabolic Activation: RAT, LIVER, S-9, AROCLOR 1254, Method: STANDARD PLATE) “inactive; negative”.
